Experimental data as given in publication PMC7073924, “2-Aminomethylene-5-sulfonylthiazole Inhibitors of Lysyl Oxidase (LOX) and LOXL2 Show Significant Efficacy in Delaying Tumor Growth” (Journal of Medicinal Chemistry, 2019).
Several values for one entry are separate records, joined by “and”; a condition that tells them apart may be missing. Equal values may be shown once. Where a name gives a salt, the structure may show the parent alone. Read-outs that look alike come from different tables or passages of the source.

Columns and labels:
LOXL3 = molecular target: T1, LOXL3 (Homo sapiens, UniProt P58215); assay: LOXL3 enzyme assay (Promega ROS-Glo, cadaverine substrate); format: biochemical
T1 sequence (P58215 26-753): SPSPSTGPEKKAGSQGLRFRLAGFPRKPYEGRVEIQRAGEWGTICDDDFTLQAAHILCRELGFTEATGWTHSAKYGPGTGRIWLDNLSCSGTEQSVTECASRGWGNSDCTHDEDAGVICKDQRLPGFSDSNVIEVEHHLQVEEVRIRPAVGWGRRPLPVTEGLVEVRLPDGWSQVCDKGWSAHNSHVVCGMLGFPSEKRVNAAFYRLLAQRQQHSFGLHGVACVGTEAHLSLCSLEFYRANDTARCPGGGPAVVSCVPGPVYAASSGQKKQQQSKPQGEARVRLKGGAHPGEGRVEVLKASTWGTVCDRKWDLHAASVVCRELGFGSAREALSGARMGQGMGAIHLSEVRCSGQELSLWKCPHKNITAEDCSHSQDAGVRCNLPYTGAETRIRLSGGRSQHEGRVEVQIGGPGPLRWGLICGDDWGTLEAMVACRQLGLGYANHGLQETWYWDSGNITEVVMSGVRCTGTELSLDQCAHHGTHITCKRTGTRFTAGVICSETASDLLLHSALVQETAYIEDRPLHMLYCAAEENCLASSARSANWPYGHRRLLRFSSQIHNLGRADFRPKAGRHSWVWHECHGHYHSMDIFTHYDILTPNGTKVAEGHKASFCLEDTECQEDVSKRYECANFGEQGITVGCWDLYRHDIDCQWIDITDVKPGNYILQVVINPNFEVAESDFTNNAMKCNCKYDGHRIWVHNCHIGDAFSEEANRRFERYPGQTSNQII
Protocol: (§1) LOXL2 and LOXL3 were purchased from R&D Systems. LOX, LOXL2, and LOXL3 catalytic activity were determined using the Promega ROS-Glo assay kit with cadaverine dihydrochloride as substrate, BAPN as the reference inhibitor control, a preincubation time of 20 min, 1 h, or 3 h, with nine dilutions from a top concentration of 10 μM or 100 μM.

LOXL2 = molecular target: T2, LOXL2 (Homo sapiens, UniProt Q9Y4K0); assay: LOXL2 enzyme assay (Promega ROS-Glo, cadaverine substrate); format: biochemical; parameters: Activity (LOXL2 activity used in the RVM model data matrix): unit not given here
T2 sequence (Q9Y4K0 26-774): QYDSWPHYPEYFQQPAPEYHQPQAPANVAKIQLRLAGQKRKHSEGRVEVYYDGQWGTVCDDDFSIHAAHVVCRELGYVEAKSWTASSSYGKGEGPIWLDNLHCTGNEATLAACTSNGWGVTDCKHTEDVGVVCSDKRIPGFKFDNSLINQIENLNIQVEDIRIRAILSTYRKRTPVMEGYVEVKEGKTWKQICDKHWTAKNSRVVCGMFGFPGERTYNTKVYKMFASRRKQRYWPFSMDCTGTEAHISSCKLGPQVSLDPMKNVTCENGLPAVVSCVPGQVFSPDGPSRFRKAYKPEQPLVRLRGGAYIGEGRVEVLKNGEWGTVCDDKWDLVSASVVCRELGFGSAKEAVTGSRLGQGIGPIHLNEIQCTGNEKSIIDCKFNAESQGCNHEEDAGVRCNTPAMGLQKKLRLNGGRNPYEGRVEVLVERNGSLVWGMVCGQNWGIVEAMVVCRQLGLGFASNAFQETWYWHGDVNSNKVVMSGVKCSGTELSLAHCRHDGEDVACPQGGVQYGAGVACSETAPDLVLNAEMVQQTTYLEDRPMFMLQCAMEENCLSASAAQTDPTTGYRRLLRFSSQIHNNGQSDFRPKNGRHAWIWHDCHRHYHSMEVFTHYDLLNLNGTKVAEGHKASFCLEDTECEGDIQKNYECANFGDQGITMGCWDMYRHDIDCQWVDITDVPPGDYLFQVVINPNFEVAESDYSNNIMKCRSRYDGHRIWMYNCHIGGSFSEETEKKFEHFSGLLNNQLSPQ

SSAO = molecular target: T3, SSAO (Homo sapiens, UniProt Q16853); format: biochemical
T3 construct: purchased Sigma
T3 sequence (Q16853 1-763): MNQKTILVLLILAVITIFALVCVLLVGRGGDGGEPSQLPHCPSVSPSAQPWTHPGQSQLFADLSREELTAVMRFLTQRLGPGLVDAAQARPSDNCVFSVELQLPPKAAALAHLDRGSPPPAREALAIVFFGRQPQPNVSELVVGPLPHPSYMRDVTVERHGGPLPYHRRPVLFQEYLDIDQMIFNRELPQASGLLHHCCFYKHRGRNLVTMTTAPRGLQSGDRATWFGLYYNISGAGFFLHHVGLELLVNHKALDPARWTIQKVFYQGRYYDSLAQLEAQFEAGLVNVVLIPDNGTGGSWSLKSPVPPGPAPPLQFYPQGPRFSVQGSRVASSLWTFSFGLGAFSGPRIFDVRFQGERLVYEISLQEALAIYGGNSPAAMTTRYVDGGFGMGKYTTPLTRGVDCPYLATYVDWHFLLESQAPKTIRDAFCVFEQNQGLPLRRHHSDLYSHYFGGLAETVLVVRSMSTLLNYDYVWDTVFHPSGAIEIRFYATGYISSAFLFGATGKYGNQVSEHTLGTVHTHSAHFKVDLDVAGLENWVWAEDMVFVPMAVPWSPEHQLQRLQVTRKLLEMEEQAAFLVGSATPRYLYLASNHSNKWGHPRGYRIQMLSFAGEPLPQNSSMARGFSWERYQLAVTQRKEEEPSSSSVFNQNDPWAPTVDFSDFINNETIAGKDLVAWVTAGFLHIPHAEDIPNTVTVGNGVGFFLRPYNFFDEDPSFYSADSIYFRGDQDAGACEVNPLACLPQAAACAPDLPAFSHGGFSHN
Protocol: All amine oxidase assays were performed with concentrations as above. MAO-A and MAO-B enzymes were purchased from Sigma. The catalytic activity of MAO-A and MAO-B was determined using the Promega MAO-Glo assay kit (substrate included), with clorgyline and deprenyl as reference inhibitor controls, respectively. DAO was purchased from Sigma, and the catalytic activity was determined using the Promega ROS-Glo assay kit, with aminoguanidine as the reference inhibitor control. SSAO was purchased from Sigma. SSAO catalytic activity was determined using the Promega MAO-Glo assay kit, with mofegiline as the reference inhibitor control.

LOX = molecular target: T4, LOX (Sus scrofa, UniProt P45845); assay: LOX enzyme assay (Promega ROS-Glo, cadaverine substrate); format: biochemical, pig; settings: Table 6; 1 h preincubation
T4 sequence (P45845 1-249): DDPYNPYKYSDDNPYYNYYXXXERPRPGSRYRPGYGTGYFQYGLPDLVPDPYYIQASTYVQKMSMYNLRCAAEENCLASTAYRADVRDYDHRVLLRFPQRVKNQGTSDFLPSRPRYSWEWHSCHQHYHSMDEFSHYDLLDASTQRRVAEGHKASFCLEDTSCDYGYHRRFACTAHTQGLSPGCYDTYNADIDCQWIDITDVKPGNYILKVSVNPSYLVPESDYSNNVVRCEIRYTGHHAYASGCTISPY
Protocol: as §1

In the case of `CS(=O)(=O)c1cc(-c2ccccc2)cc(S(=O)(=O)c2ccc(CN)s2)c1` [Compound 3a], the IC50 (LOXL3) is reported as 13500 nM and 18500 nM.

`NCc1ccc(S(=O)(=O)c2ccc3ccccc3c2)s1` [Compound 4] was tested, and the “increase in LOXL2 potency on increasing preincubation from 20 min to 1 h” value (LOXL2) was no more than 5 fold.

`NCc1ncc(S(=O)(=O)c2ccc3ccccc3c2)s1` [Compound 6] was tested, and the IC50 (SSAO) was 47200 nM and 47100 nM.

`CNCc1ncc(S(=O)(=O)c2cc(-c3ccccc3)cc(S(C)(=O)=O)c2)s1` [Compound 7b, N-Methyl-1-(5-((5-(methylsulfonyl)-[1,1′-biphenyl]-3-yl)sulfonyl)thiazol-2-yl)methanamine Hydrochloride] showed an IC50 (LOXL2; read-out: LOXL2, IC50) of 68300 nM.

`CS(=O)(=O)c1cc(-c2ccccc2)cc([S+]([O-])c2cnc(CN)s2)c1` (stereo not drawn) [Compound 7c, (5-((5-(Methylsulfonyl)-[1,1′-biphenyl]-3-yl)sulfinyl)thiazol-2-yl)methanamine Hydrochloride] was tested, and the IC50 (LOXL2; read-out: LOXL2 IC50) was 244 nM and 236 nM.

With `CS(=O)(=O)c1cc(Sc2cnc(CN)s2)cc(-c2ccccc2)c1` [Compound 7d, (5-((5-(Methylsulfonyl)-[1,1′-biphenyl]-3-yl)thio)thiazol-2-yl)methanamine Hydrochloride] the IC50 (LOXL2; read-out: LOXL2 IC50) was 233 nM and the IC50 (LOX) was 1310 nM and 1130 nM.

`CCCS(=O)(=O)c1cnc(CN)s1` [Compound 10, (5-(Propylsulfonyl)thiazol-2-yl)methanamine Hydrochloride] was tested, and the “Activity (LOXL2 activity used in the RVM model data matrix)” value (LOXL2) was 6.24 and the IC50 (LOXL2; Table 3, 1 h preincubation, read-out: LOXL2 IC50) was 554 nM and 590 nM.

`CS(=O)(=O)c1cccc(S(=O)(=O)c2cnc(CN)s2)c1` [Compound 13, (5-((3-(Methylsulfonyl)phenyl)sulfonyl)thiazol-2-yl)methanamine Hydrochloride] was tested, and the IC50 (LOXL2; read-out: LOXL2 IC50) was 184 nM and 246 nM.

For `CS(=O)(=O)c1cccc(-c2cnc(CN)s2)c1` [Compound 14, (5-(3-(Methylsulfonyl)phenyl)thiazol-2-yl)methanamine Hydrochloride], the IC50 (LOXL2; read-out: LOXL2 IC50) was 414 nM and 394 nM.

For `NCc1ncc(-c2cccc(-c3ccccc3)c2)s1` [Compound 16, (5-([1,1′-Biphenyl]-3-yl)thiazol-2-yl)methanamine Hydrochloride], the IC50 (LOXL2; read-out: LOXL2 IC50) was 1750 nM and 1600 nM.

In the case of `CS(=O)(=O)c1cc(-c2ccccc2)cc(-c2cnc(CN)s2)c1` [Compound 17, (5-(5-(Methylsulfonyl)-[1,1′-biphenyl]-3-yl)thiazol-2-yl)methanamine Hydrochloride], the “Activity (LOXL2 activity used in the RVM model data matrix)” value (LOXL2) is reported as 6.16, the IC50 (LOXL2; read-out: LOXL2 IC50) is reported as 652 nM and 716 nM and the IC50 (LOX) is reported as 52000 nM and 46500 nM.

With `Cc1ccc(-c2cc(S(C)(=O)=O)cc(S(=O)(=O)c3cnc(CN)s3)c2)cc1` [Compound 18, (5-((4′-Methyl-5-(methylsulfonyl)-[1,1′-biphenyl]-3-yl)sulfonyl)thiazol-2-yl)methanamine Hydrochloride] the IC50 (SSAO) was 2700 nM and 1300 nM.

Work on `Cn1cc(-c2cc(Cl)cc(S(=O)(=O)c3cnc(CN)s3)c2)cn1` [Compound 21d, (5-((3-Chloro-5-(1-methyl-1H-pyrazol-4-yl)phenyl)sulfonyl)thiazol-2-yl)methanamine Hydrochloride] yielded an IC50 (LOXL2; Activity column of RVM_model_LOXL2.csv, Type = Data matrix, input activity for the RVM model of LOXL2, read-out: Activity (LOXL2 activity used in the RVM model data matrix) (converted)) of 309 nM and an IC50 (LOXL2; read-out: LOXL2 IC50) of 280 nM.
